In PubChem BioAssay AID493102 (Broad Institute, 2011):

System: SK-MEL-5 TRPM1-promoter luciferase reporter, 24 h
Assay: reducers of TRPM1 reporter luminescence, concentration series – cell-based, SK-MEL-5, cherry-picked, set 4, MITF inhibitor project, dose response (AID 493102);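 note: actives lower the luciferase signal so the potency reflects inhibition of reporter expression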

| Compound | AC50 [µM] |
| --- | --- |
| CN1CCN(C2=C(NS(=O)(=O)c3cccs3)C(=O)c3ccccc3C2=O)CC1 | 6.98 |
| N=c1n(CC(=O)c2ccc(Br)s2)c2ccccc2n1Cc1ccccc1 | 7.34 |
| CC(C)C1CC(CCNCc2ccc(N(C)C)cc2)(c2ccccc2)CCO1 (stereo not given) | 11.1 |
| C[C@H]1CCC[C@]2(C)C[C@H]3OC(=O)C(CN4CCCCCC4)[C@H]3C=C12 (stereo not given in full) | 13.9 |
| O=C(Nc1cccc(S(=O)(=O)N2CCCCC2)c1)c1ccc([N+](=O)[O-])o1 | 11.9 |
| CC1(C)Cc2ccccc2C2=NNC(=O)C2=N1 | 3.62 |
| CCC(=O)N1CCN(c2ccc(Cl)cc2NC(=O)c2ccc([N+](=O)[O-])o2)CC1 | 12.4 |
| Cc1ccc2c(c1)COc1c3ccc(C(=O)O)cc3nn1-2 | 2.23 |
| Cc1cc(/C=C2\Sc3ccccc3N2C)cc(C)[n+]1CC1CCCO1 (stereo not given) | 1.82 |
| FC(F)(F)c1cc(CCN2CCNC[C@@H]2Cc2ccccc2)cc(C(F)(F)F)c1 | 12.3 |
| C#CC(=O)N(c1ccc(OC)cc1OC)C(C(=O)NC1CCCC1)c1cccs1 (stereo not given) | 4.73 |
| CCOc1ccc2nc(C)cc(Nc3cccc([N+](=O)[O-])c3)c2c1 | 17.8 |
| COc1cc(NC(=O)c2[nH]cnc2C(N)=O)cc(C(=O)Nc2cccc(C(F)(F)F)c2)c1 | 10.9 |
| O=C1C(Nc2ccccc2)=C(N2CCCCC2)C(=O)c2ccccc21 | 6.67 |
| CCN1CCc2c(sc(NC(=O)c3ccc(S(=O)(=O)N4CCCCCC4)cc3)c2C(=O)NC)C1 | 16.6 |
| Cc1nc2ccccc2n1/N=C/c1ccc([N+](=O)[O-])s1 | 3.51 |
| COc1ccc(C(=O)/C(C#N)=N/Nc2ccc([N+](=O)[O-])cc2)cc1 | 8.26 |
| Cc1ccc(C(=O)C[n+]2cc(-c3ccc(C)cc3)n3c2CCCCC3)cc1 | 3.63 |
| Cc1ccc2sc(N(CCCN(C)C)C(=O)c3ccc(S(=O)(=O)N(C)C4CCCCC4)cc3)nc2c1C | 18 |
| CC(Oc1ccc(F)cc1)C(=O)Nc1nc(-c2ccccn2)cs1 (stereo not given) | 9.42 |
| CC(=O)N(\C=C/C=C/C=C1\Sc2ccccc2C1=O)c1ccccc1 | 8 |
| O=C(Nc1ccc(Cl)cc1)Nc1cccc(C(=O)O)c1 | 3.79 |
| Cc1ccccc1OCc1n(CC(=O)OC2CC(C)CCC2C(C)C)c2ccccc2[n+]1C (stereo not given) | 7.52 |
| CCOC(=O)c1nnn(-c2ccc([N+](=O)[O-])cc2[N+](=O)[O-])c1C | 8.85 |
| CC1CCC/C=C/C(=O)c2c(O)cc(O)cc2CC(=O)O1 (stereo not given) | 5.79 |
| COc1cc(/C=N/NS(=O)(=O)c2ccc3ccccc3c2)ccc1OCc1ccc(C(=O)O)cc1 | 4.78 |
| O=[N+]([O-])/C=C\c1ccc(N2CCCC2)c(F)c1 | 13.4 |
| COc1ccc(O)c(/C=N/NC(=O)c2ccc(CSc3nc(C)cc(C)n3)cc2)c1 | 9.31 |

| Compound | AC50 [µM] |
| --- | --- |
| CC(NC(=O)C12CC3CC(CC(C3)C1)C2)C(=O)NN=Cc1ccc([N+](=O)[O-])o1 (stereo not given) | 7.79 |
| CCOc1ccc(NC(=O)CCC(=O)N/N=C/c2ccc([N+](=O)[O-])s2)cc1 | 6.21 |
| COc1cc(SC)ccc1C(=O)Nc1ccc(Br)cn1 | 7.36 |
| O=C(CCl)Nc1ccc(Sc2ccc(NC(=O)CCl)cc2)cc1 | 5.98 |
| Cn1nnnc1Sc1ncnc2scc(-c3ccc[nH]3)c12 | 7.32 |
| CC1CN(N=Cc2ccc([N+](=O)[O-])o2)C(=N)O1 (stereo not given) | 24.1 |
| CC(C)C(=O)N1CCN(c2ccc(NC(=O)c3ccc([N+](=O)[O-])o3)cc2)CC1 | 7.98 |
| O=C(/C=C/c1ccc([N+](=O)[O-])s1)N1CCCCC1 | 4.16 |
| Cc1ccc(C(=O)c2cccc(N)c2)cc1C | 3.62 |
| CN1CCN(c2ccc(NC(=O)c3ccc([N+](=O)[O-])o3)cc2Cl)CC1 | 9.02 |
| CC(C)c1ccc(N2C(=O)NC(=O)/C(=C/C=C/c3ccco3)C2=O)cc1 | 5.89 |
| CCN(CC)CCn1nc2c3c(cccc3c1=O)-c1ccccc1-2 | 5.92 |
| OC(CNCC(c1ccc(Cl)cc1Cl)c1c[nH]c2ccccc12)c1ccccc1 (stereo not given) | 14.7 |
| O=C(O)CSCC(=O)Nc1ccc(C2CCCCC2)cc1 | 2.12 |
| CC(=O)c1cccc(NC(=O)/C=C/c2ccc([N+](=O)[O-])s2)c1 | 7.16 |
| Cc1ccc2c(c1)Oc1ccc(NC(=O)CCl)cc1C(=O)N2 | 10.1 |
| CCCCCCn1c(=O)c(C(=O)Nc2cnccn2)c(O)c2ccccc21 | 3.68 |
| CC(C)=CCc1c(O)ccc2c1OC(c1ccc(O)c(O)c1)CC2=O (stereo not given) | 11.7 |
| CCOc1ccc(NC(=O)Nc2cccc(C(=O)O)c2)cc1 | 1.53 |
| CCN(CC)CCC(=O)N1C/C(=C/c2ccccc2)C(=O)/C(=C\c2ccccc2)C1 | 4.72 |
| COc1ccc(NC(=O)CCC(=O)N/N=C/c2ccc([N+](=O)[O-])s2)cc1 | 7.62 |
| O=c1c2ccccc2cnn1CCOc1ccccc1 | 7.2 |
| Cc1nc2ccccn2c1C(=O)/C=C/c1cccc([N+](=O)[O-])c1 | 6.9 |
| O=C(N/N=C/c1ccc(F)cc1)c1c(O)c2ccccc2[nH]c1=O | 9.64 |
| O=C(NC1CCCC(C(F)(F)F)C1)c1ccc([N+](=O)[O-])o1 (stereo not given) | 11.2 |
| Cc1ccc(NC(=O)c2ncn(CCCN[C@H](C)c3cccc4ccccc34)n2)cc1C | 22.7 |
| O=C(O)c1cccc(NC(=S)N/N=C/c2ccccn2)c1 | 8.63 |
